Consider 1 compound from patent EP3875077B1, “DOSAGE FORM PROVIDING PROLONGED RELEASE OF […] SALT” (Grünenthal GmbH, priority 2020, dated 2021).

Where a name gives a salt, the structure may show the parent alone. Read-outs that look alike come from different tables or passages of the source.

The series is described as follows: thermodynamic solubility (saturation solubility) in various media, quantified by HPLC. The series is classed as physicochemical. The note with it: for solubility thermodynamic at 24 h: thermodynamic from solid, read-out: thermodynamic solubility, assay expressed as base. The method, then:
The thermodynamic solubility of Tapentadol hydrochloride and of Tapentadol dihydrogenphosphate (mixed form, batch with fine particles) was determined as saturation solubility in various media at various pH values. The solutions were stirred for 24 hours at 25 °C and the pH values of the solutions at the start and at the end of the experiments were measured. The dissolved amount of Tapentadol was quantified by HPLC (free base of Tapentadol).

What is called thermodynamic solubility is solubility found after equilibrating the solid with the medium. On to `CC[C@@H](c1cccc(O)c1)[C@@H](C)CN(C)C` [Tapentadol hydrochloride, (-)-(1R,2R)-3-(3-dimethylamino-1-ethyl-2-methyl-propyl)-phenol], for which the “thermodynamic solubility, assay expressed as base” value is, setting by setting: (0.1 M HCl, 24 hours at 25 °C) 31.2 g/100 mL; (0.15N NaOH, 24 hours at 25 °C) 6.6 g/100 mL. The solubility (thermodynamic) at 24 h by setting is: (acetate buffer pH 4.5, aqueous buffer, acetate pH 4.5, 24 hours at 25 °C) 327 mg/mL; (citrate buffer pH 6.8, aqueous buffer, citrate pH 6.8, 24 hours at 25 °C) 318 mg/mL; (citrate buffer pH 7.4, aqueous buffer, citrate pH 7.4, 24 hours at 25 °C) 319 mg/mL; (fassgf or other biorelevant, SIF sp pH 6.8, 24 hours at 25 °C) 324 mg/mL; (water, 24 hours at 25 °C) 330 mg/mL.
